pIC50: −log10 of the molar value.
Assays:
hFAAH = target: T1, hFAAH (Homo sapiens, UniProt O00519); assay: Inhibition of FAAH activity (Cayman FAAH inhibitor screening assay kit, AMC-arachidonoyl amide hydrolysis, fluorescence); assay type: biochemical; conditions: 30 min preincubation; for inhibition at 10 µM: 10 μM compound, 37° C., triplicate; for pIC50: only compounds with more than 50% inhibition at 10 μM
T1 construct: purchased Cayman Chemicals 10005196
T1 sequence (O00519 1-579): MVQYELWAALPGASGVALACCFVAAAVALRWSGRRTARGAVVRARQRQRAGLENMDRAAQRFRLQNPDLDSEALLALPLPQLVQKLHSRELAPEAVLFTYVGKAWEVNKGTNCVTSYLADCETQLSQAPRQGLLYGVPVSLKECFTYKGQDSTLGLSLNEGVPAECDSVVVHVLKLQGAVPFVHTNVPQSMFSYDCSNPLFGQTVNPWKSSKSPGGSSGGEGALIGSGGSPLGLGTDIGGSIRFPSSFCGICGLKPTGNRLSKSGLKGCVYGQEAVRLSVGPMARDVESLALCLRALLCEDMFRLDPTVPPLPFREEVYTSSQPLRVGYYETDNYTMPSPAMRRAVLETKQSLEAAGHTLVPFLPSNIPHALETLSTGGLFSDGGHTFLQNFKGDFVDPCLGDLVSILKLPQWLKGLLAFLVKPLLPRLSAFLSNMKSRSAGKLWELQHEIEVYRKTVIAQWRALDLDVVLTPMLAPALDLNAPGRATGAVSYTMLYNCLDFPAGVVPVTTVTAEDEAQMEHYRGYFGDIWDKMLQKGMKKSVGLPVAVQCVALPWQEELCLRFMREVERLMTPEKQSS
Experimental: Inhibition of FAAH Activity
Assay was performed using kits (#10005196) purchased from Cayman Chemicals (Anne Arbor, MI, USA). Ibuprofen was acquired as a generous gift from Tabuk Pharmaceuticals (Tabuk, SA). Doxorubicin was purchased from Sigma (St. Luis, MI, USA). Assay was performed using the FAAH inhibitor screening assay kit from Cayman Chemicals according to the manufacturer's protocol. Release of the fluorescent product, 7-amino-4-methylcoumarin (AMC), from the hydrolysis of AMC-arachidonoyl amide, mediated by FAAH at 37° C., was recorded using a plate reader with an excitation filter of 340-360 nm and an emission filter of 450-465 nm. Inhibitors were preincubated for 30 min at indicated concentrations with the enzyme prior to the addition of substrate to initiate the reaction. Change in fluorescence with time was taken as enzyme activity and the extent of inhibition was calculated from the initial rates. Final DMSO concentration was kept at 2% (v/v) in the assay. Each concentration was repeated three times (Triplicate) to conform to statistical accuracy. Percentage of inhibition at 10 μM was measured for all compounds. Compounds which were able to inhibit the enzyme activity more than 50% at 10 μM were considered eligible for IC50 calculations. For IC50, the inhibition assay was performed at 1.0, 0.1, 0.01, 0.001 and 0.0001 μM concentration of compound under assay. The hFAAH inhibition was calculated as compared to activity observed with vehicle. IC50 values were calculated using Prism v.7.02 for each column separately (singlet concentration). The compound's IC50 was calculated using InStat v.3 software (GraphPad Software, San Diego, CA) which was also used for calculation of standard error of means (SEM). Referring to FIG. 1, inhibition of hFAAH by compound 10 is shown.
(§1) IC50 is the concentration at which 50% of the cells were inhibited after treatment with a target compound. SEM is the standard error of means.

A549 NSCLC cell line = assay: Inhibition of A549 NSCLC cell line (sulforhodamine B assay, 72 h); assay type: cell-based; conditions: Homo sapiens, SRB assay, 72 hours exposure
Experimental: as §1
Inhibition of A549 NSCLS (Non-Small Cells Lung Cancer) Cell Line
A549 cell lines were obtained from the National Cancer Institute (Cairo, Egypt) and maintained in Roswell Park Memorial Institute medium (RPMI1640) (Invitrogen, Carlsbad, CA, USA) supplemented with […] of streptomycin, 100 units/mL of penicillin and 10% of heat-inactivated fetal bovine serum (Invitrogen) in a humidified, 5% (v/v) CO2 atmosphere at 37° C. The sulforhodamine B (SRB) assays were performed according to Skehan et al 20, 21. Briefly, exponentially growing cells were trypsinized, counted and seeded at the appropriate densities (5000 cells/100 μL/well) into 96-well microtiter plates. Cells were incubated in a humidified atmosphere at 37° C. for 24 h. Then, the cells were exposed to different compounds at the desired concentrations, (0.01, 0.03, 0.1, 0.3, 1, 3, 10, 30 and 100 μM) or to 1% dimethyl sulfoxide (DMSO) for 72 hours. At the end of the treatment period, the media were removed, and the cells were fixed with 10% trichloroacetic acid at 4° C. for 1 h. The cells then were washed with tap water four times and incubated with SRB 0.4% for 30 min. Excess dye was removed by washing repeatedly with 1% (vol/vol) acetic acid. The protein-bound dye was dissolved in 10 mM Tris base solution for OD determination at 510 nm using a SpectraMax plus Microplate Reader (Molecular Devices, CA). Cell viability was expressed relative to the untreated control cells. Statistical analyses were performed using legally licensed GraphPad Prism™ and Instat™ software (GraphPad Inc., La Jolla, CA, USA).

| SMILES | inhibition at 10 µM (hFAAH) [%] | pIC50 (A549 NSCLC cell line) | pIC50 (hFAAH) |
| --- | --- | --- | --- |
| CC(C)Cc1ccc(C(C)C(=O)NNS(=O)(=O)c2ccc3ccccc3c2)cc1 (stereo not drawn) [Compound 4, N′-(2-(4-isobutylphenyl)propanoyl)naphthalene-2-sulfonohydrazide] | 87.8 | 4.28 | 6.75 |
| CC(C)Cc1ccc(C(C)C(=O)NNS(=O)(=O)c2c(C(C)C)cc(C(C)C)cc2C(C)C)cc1 (stereo not drawn) [Compound 5, N′-(2-(4-isobutylphenyl)propanoyl)-2,4, 6 triisopropyl benzene sulfonohydrazide] | 8.85 | 4.14 |  |
| CC(C)Cc1ccc(C(C)C(=O)NNS(=O)(=O)C(Br)c2ccccc2)cc1 (stereo not drawn) [Compound 6, 1-Bromo-N′-(2-(4-isobutylphenyl)propanoyl)-1-phenylmethane sulfonohydrazide] | 20.6 | < 4.00 |  |
| CC(C)Cc1ccc(C(C)C(=O)NNS(=O)(=O)c2cccc(C(F)(F)F)c2)cc1 (stereo not drawn) [Compound 7, N′-(2-(4-isobutylphenyl)propanoyl)-3-(trifluoromethyl) benzene sulfonohydrazide] | 36.1 | < 4.00 |  |
| CC(C)Cc1ccc(C(C)C(=O)NNS(=O)(=O)c2ccc(-c3ccccc3)cc2)cc1 (stereo not drawn) [Compound 10, N′-(2-(4-isobutylphenyl)propanoyl)-[1, 1′-biphenyl]-4-sulfonohydrazide] | 98.1 | 6.54 | 8.25 |
| Cc1ccc(-c2ccc(S(=O)(=O)NNC(=O)C(C)c3ccc(CC(C)C)cc3)cc2)cc1 (stereo not drawn) [Compound 11, N′-(2-(4-isobutylphenyl)propanoyl)-4′-methyl-[1, 1′-biphenyl]-4-sulfonohydrazide] | 95.3 | 4.80 | 7.14 |
| COc1ccc(-c2ccc(S(=O)(=O)NNC(=O)C(C)c3ccc(CC(C)C)cc3)cc2)cc1 (stereo not drawn) [Compound 12, N′-(2-(4-isobutylphenyl)propanoyl)-4′-methoxy-[1, 1′-biphenyl]-4sulfonohydrazide] | 99 | 4.93 | 6.85 |
| CC(C)Cc1ccc(C(C)C(=O)NNS(=O)(=O)Cc2ccccc2)cc1 (stereo not drawn) [Compound 20, N′-(2-(4-isobutylphenyl)propanoyl)-1-phenylmethanesulfonohydrazide] | 44.2 | < 4.00 |  |
| COc1cccc2c1C(=O)c1c(O)c3c(c(O)c1C2=O)C[C@@](O)(C(=O)CO)C[C@@H]3O[C@H]1C[C@H](N)[C@H](O)[C@H](C)O1 [Doxorubicin, reference compound] |  | 5.64 |  |
| CC(C)Cc1ccc(C(C)C(=O)O)cc1 (stereo not drawn) [Ibuprofen, reference compound] | 10 |  |  |

The remaining lines, values ahead:

| inhibition at 10 µM (hFAAH) [%] | pIC50 (A549 NSCLC cell line) | pIC50 (hFAAH) | SMILES |
| --- | --- | --- | --- |
| 33.6 | < 4.00 |  | CC(=O)c1ccc(S(=O)(=O)NNC(=O)C(C)c2ccc(CC(C)C)cc2)cc1 (stereo not drawn) [Compound 1, 4-acetyl-N′-(2-(4-isobutylphenyl)propanoyl)benzenesulfonohydrazide] |
| 63.5 | < 4.00 | 5.84 | Cc1ccc(S(=O)(=O)NNC(=O)C(C)c2ccc(CC(C)C)cc2)cc1 (stereo not drawn) [Compound 2, N′-(2-(4-isobutylphenyl)propanoyl)-4-methylbenzene sulfonohydrazide] |
| 45.5 | 4.25 |  | CC(C)Cc1ccc(C(C)C(=O)NNS(=O)(=O)c2ccccc2[N+](=O)[O-])cc1 (stereo not drawn) [Compound 3, N′-(2-(4-isobutylphenyl)propanoyl)-2-nitrobenzenesulfonohydrazide] |
| 74 | 4.40 | 5.92 | CC(C)Cc1ccc(C(C)C(=O)NNS(=O)(=O)c2ccc(C(F)(F)F)cc2)cc1 (stereo not drawn) [Compound 8, N′-(2-(4-isobutylphenyl)propanoyl)-4-(trifluoromethyl) benzene sulfonohydrazide] |
| 99.9 | 4.33 | 6.84 | CC(C)Cc1ccc(C(C)C(=O)NNS(=O)(=O)c2ccccc2)cc1 (stereo not drawn) [Compound 9, N′-(2-(4-isobutylphenyl)propanoyl) benzenesulfonohydrazide] |
| 48.7 | < 4.00 |  | CC(C)Cc1ccc(C(C)C(=O)NNS(=O)(=O)c2ccc(Br)cc2)cc1 (stereo not drawn) [Compound 13, 4-Bromo-N′-(2-(4-isobutylphenyl)propanoyl)benzenesulfonohydrazide] |
| 23.8 | < 4.00 |  | COc1ccc(S(=O)(=O)NNC(=O)C(C)c2ccc(CC(C)C)cc2)cc1OC (stereo not drawn) [Compound 14, N′-(2-(4-isobutylphenyl)propanoyl)-3,4-dimethoxybenzene sulfonohydrazide] |
| 86.5 | < 4.00 | 6.17 | CC(C)Cc1ccc(C(C)C(=O)NNS(=O)(=O)c2cccs2)cc1 (stereo not drawn) [Compound 15, N′-(2-(4-isobutylphenyl)propanoyl)thiophene-2-sulfonohydrazide] |
| 28.4 | < 4.00 |  | CC(C)Cc1ccc(C(C)C(=O)NNS(=O)(=O)c2ccc(Br)s2)cc1 (stereo not drawn) [Compound 16, 5-Bromo-N′-(2-(4-isobutylphenyl)propanoyl) thiophene-2-sulfonohydrazide] |
| 7.44 | < 4.00 |  | Cc1ccc(S(=O)(=O)NNC(=O)C(C)c2ccc(CC(C)C)cc2)s1 (stereo not drawn) [Compound 17, N′-(2-(4-isobutylphenyl)propanoyl)-5-methylthiophene-2-sulfonohydrazide] |
| 58.6 | < 4.00 | 5.40 | CC(C)Cc1ccc(C(C)C(=O)NNS(=O)(=O)c2cccnc2)cc1 (stereo not drawn) [Compound 18, N′-(2-(4-isobutylphenyl)propanoyl)pyridine-3-sulfonohydrazide] |
| 40.5 | < 4.00 |  | CC(C)Cc1ccc(C(C)C(=O)NNS(=O)(=O)c2ccc(C(F)(F)F)nc2)cc1 (stereo not drawn) [Compound 19, N′-(2-(4-isobutylphenyl)propanoyl)-6-(trifluoromethyl)pyridine-3sulfonohydrazide] |

Reference: patent US12234205B1, “Sulfonylhydrazide derivatives as anticancer agents” (KING SAUD UNIVERSITY, priority 2024, dated 2025)
